Data published in patent publication US7998460B2, “Prevention of deficits in neurogenesis with anti-inflammatory agents” (The Board of Trustees of the Leland Stanford Junior …, priority 2003, dated 2011).
“Also recorded” adds a separate entry of the source.

Experiments:
hippocampal neurogenesis [1] = assay: Oral NSAID course and LPS challenge, hippocampal neurogenesis at day 28 in mice; type: in vivo, mouse; conditions: oral NSAID course, LPS 5 mg/kg
Method: Mice were started on a 16 day preventative course of oral NSAID and then challenged with a single IP injection of LPS (5 mg/kg) and then BrdU (50 mg/kg) over 6 days beginning 2 h after LPS. The mice were either perfused 28 days after LPS injection, or trained and tested in the Morris water maze.
NSAID treatment. […]

hippocampal neurogenesis [2] = assay: LPS-induced transient illness, microglia and hippocampal neurogenesis in mice; type: in vivo, mouse
Method: To investigate whether an LPS challenge produces more chronic effects on neurogenesis, adult female C57BI/6 mice were injected intraperitoneally (i.p.) with 0, 5, 7.5 and 10 mg/kg of LPS and subcutaneously with sterile saline to prevent dehydration. Mice were then injected once daily over the next 6 days with the cell synthesis marker bromodeoxyuridine (BrdU; 50 mg/kg) to label dividing progenitor cells. Histology was performed on sections from mice that were perfused on Day 7 or Day 28. The number of BrdU-labeled (new) or IBA-1-labeled (monocyte/microglial) cells was estimated through hippocampal sets stereologically using enzyme substrate immunohistochemistry and light microscopy and BrdU-labeled cell phenotypes and IBA-1-labeled activation was determined using immunofluorescence and confocal microscopy.
Subjects. All mice used as subjects in this study were treated in accordance with the policies set forth by the Stanford Animal Care and Use Committee and NIH regarding the ethical use of animals for experimentation. CB57BI/6 mice (7 wks old upon arrival from -Taconic) were housed in groups of 4-5 in autoclaved shoebox cages under standard conditions and were given free access to autoclaved Prolab Mouse 3000 chow (PMI Nutrition International, St. Louis, Mo.) and autoclaved tap water. One week after arrival, vehicle- and NSAID-treated mice were given an intraperitoneal (i.p.) injection of sterile saline or lipopolysaccharide (LPS; 5 mg/kg at a concentration of 1 mg/ml isotonic saline; Sigma Aldrich, St. Louis, Mo.) to induce transient illness (Day 0) and daily subcutaneous (s.c.) isotonic saline (0.5 ml) injections (Days 0-3) to prevent illness-induced dehydration. The cell synthesis marker bromodeoxyuridine (BrdU; Sigma Aldrich, St. Louis, Mo.) was injected i.p. (50 mg/kg at a concentration of 10 mg/ml in freshly prepared isotonic saline) once per day for 6 days to label dividing cells, beginning Day 0 (2 h after LPS). The mice were anesthetized with ketamine/xylazine and killed at Days 7 or 28 (to assess hippocampal neurogenesis during illness and just before behavioral testing, respectively) or Day 80 (to measure hippocampal neurogenesis following behavioural testing) by perfusion with 4% paraformaldehyde. Brains were post-fixed overnight in perfusate, microtome sectioned at 40 μm through the hippocampus and stored in tissue cryoprotectant solution at −20° C. until processed immunohistochemically.
Histology and Immunohistochemistry. Free floating sections were immunostained as described previously using the following primary antibodies and working concentrations: rat anti-bromodeoxyuridine (1:500; Accurate, Westbury, N.J.) goat anti-doublecortin (1:500; Santa Cruz, Calif.), rabbit anti-[…] (1:2000; WAKO, Los Angeles, Calif.), rabbit anti-FA-11 (CD68; 1:200; Serotec, Raleigh, N.C.), guinea pig anti-GFAP (1:750; Harlan, Indianapolis, Ind.), rabbit anti-NG2 (1:2000; a gift from W. Stallcup), mouse anti-NeuN (1:500; Chemicon; Temeculah, Calif.). Tissue was incubated in all primary antibodies ovemight (and in anti-BrdU for 48 h) at 4° C. Phenotyping sets were incubated in minimally cross-reactive secondary IGg conjugated fluorophores (1:500; Jackson Immunoresearch, West Grove, Pa.) overnight at 4° C. and coverslipped under PVA-DABCO.
Cell Counting and Unbiased Stereology. BrdU-labeled cells were phenotyped and total BrdU-labeled and […] cell numbers stereologically estimated if they were located in the hippocampal granule cell layer proper and subgranular zone (the neurogenic zone that includes a 50 μm border between the hilus and granule cell layer). BrdU-labeled cells were phenotyped on immunofluroescent stained sections that were anatomically matched using a Zeiss 510 Meta confocal microscope using a multi-channel configuration with a 40× objective and electronic zoom of 2.3. Appropriate gain and black level was set using control sections stained with secondary antibodies alone. […]

[3] = dentate gyri, 4 weeks after LPS

Compound | effect on LPS-induced deficit in fraction of newborn cells adopting a neuronal fate (DCX and/or NeuN) by Day 28 (hippocampal neurogenesis [1]) | effect on LPS-induced reduction of transition state and mature neurons (hippocampal neurogenesis [1]; Day 28) | reduction in the net number of new neurons (hippocampal neurogenesis [2]; 4 weeks after LPS challenge) | reduction of BrdU positive cells colabeled with NeuN (hippocampal neurogenesis [2]; 4 weeks after LPS challenge) | reduction of BrdU-positive cells colabeled with DCX/NeuN (hippocampal neurogenesis [2]; 4 weeks after LPS challenge) | total number of BrdU positive cells vs vehicle (hippocampal neurogenesis [2]; 6 and 28 d after injection) | activation (FA-11/CD68) intensity on IBA-1 positive cells vs vehicle (hippocampal neurogenesis [2]; [3]) [fold] | total IBA-1 positive cell number vs vehicle (hippocampal neurogenesis [2]; [3]) | reduction of BrdU positive cells colabeled with DCX/NeuN (hippocampal neurogenesis [2]; week following LPS challenge, independent of LPS dose)
COc1ccc2c(c1)c(CC(=O)O)c(C)n2C(=O)c1ccc(Cl)cc1 [indomethacin] | attenuated, but did not completely reverse this deficit; also recorded: attenuated this deficit | partially reversed the effects of LPS |  |  |  |  |  |  | 
lipopolysaccharide [LPS] |  |  | 45-55% | ≈ 57% | ≈ 44% | similar | 1.25 | similar | ≈ 41%
